Measured values taken from patent publication US12643882B2, “Inhibitors of human respiratory syncytial virus and metapneumovirus” (priority 2022, dated 2026).
Where two headings read alike, the source gives them in different places.

Assays:
[1] = test system: RSV-A2-GFP virus; assay: microbe, parasite or virus in culture; assay type: cell-based, Human Respiratory Syncytial Virus
Outline: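 IC50 (GFP-expressing cell counts by Acumen imaging) and CC50 (same-well CellTiter-Glo) were obtained by 4-parameter logistic fitting. Compounds were tested in 10-point 3-fold series for 96 h at 37° C, 5% CO2. Thawed Calu-1 ARF cells were infected at MOI 1.2 with GFP-reporter RSV-A2 in 2% FBS DMEM.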

[2] = test system: hMPV-GFP virus; assay: microbe, parasite or virus in culture; assay type: cell-based, human metapneumovirus
Outline: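 Antiviral IC50 was derived from imaging counts of GFP-expressing cells, with CC50 from a same-well CellTiter-Glo read, both by 4-parameter logistic fitting. VERO cells plus hMPV-GFP (MOI 1.25) were exposed 48 h at 37 °C to 10-point 3-fold compound dilutions (typical final 40,300–2 nM).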

[3] = Calu-1 cells infected with RSV-A2-GFP, 96 hrs, GFP-expressing cells counted, read-out: RSV EC50
[4] = VERO cells infected with hMPV-GFP, 48 hrs, GFP-expressing cells counted, read-out: hMPV EC50
[5] = human respiratory syncytial virus, Calu-1, 96 h, read-out: RSV EC50, Calu-1 cells infected with RSV-A2-GFP, 96 hrs, GFP-expressing cells counted
[6] = human metapneumovirus, Vero, 48 h, read-out: hMPV EC50, VERO cells infected with hMPV-GFP, 48 hrs, GFP-expressing cells counted

| SMILES | EC50 [1, 3] [nM] | EC50 [2, 4] [nM] | EC50 [1, 5] [nM] | EC50 [2, 6] [nM] |
| --- | --- | --- | --- | --- |
| Cc1ccc(-c2cc(C(C)(C)N)cc(O[C@H]3[C@@H]4CN(C(=O)c5sc(-c6ncccn6)nc5C)C[C@@H]43)n2)c(F)c1 [Example 38, ((1R,5S,6s)-6-((4-(2-aminopropan-2-yl)-6-(2-fluoro-4-methylphenyl)pyridin-2-yl)oxy)-3-azabicyclo[3.1.0]hexan-3-yl)(4-methyl-2-(pyrimidin-2-yl)thiazol-5-yl)methanone] | < 10 | 10 to 100 |  |  |
| Cc1cc(F)ccc1-c1cc(C(C)(C)N)cc(O[C@H]2[C@@H]3CN(C(=O)c4sc(-c5ncccn5)nc4C)C[C@@H]32)n1 [Example 39, ((1R,5S,6s)-6-((4-(2-aminopropan-2-yl)-6-(4-fluoro-2-methylphenyl)pyridin-2-yl)oxy)-3-azabicyclo[3.1.0]hexan-3-yl)(4-methyl-2-(pyrimidin-2-yl)thiazol-5-yl)methanone] | < 10 | 10 to 100 |  |  |
| Cc1cccc(-c2cc(C(C)(C)N)cc(O[C@H]3[C@@H]4CN(C(=O)c5sc(-c6ncccn6)nc5C)C[C@@H]43)n2)c1F [Example 40, ((1R,5S,6s)-6-((4-(2-aminopropan-2-yl)-6-(2-fluoro-3-methylphenyl)pyridin-2-yl)oxy)-3-azabicyclo[3.1.0]hexan-3-yl)(4-methyl-2-(pyrimidin-2-yl)thiazol-5-yl)methanone] | < 10 | > 100 |  |  |
| COc1cc(F)ccc1-c1cc(C(C)(C)N)cc(O[C@H]2[C@@H]3CN(C(=O)c4sc(-c5ncccn5)nc4C)C[C@@H]32)n1 [Example 41, ((1R,5S,6s)-6-((4-(2-aminopropan-2-yl)-6-(4-fluoro-2-methoxyphenyl)pyridin-2-yl)oxy)-3-azabicyclo[3.1.0]hexan-3-yl)(4-methyl-2-(pyrimidin-2-yl)thiazol-5-yl)methanone] | < 10 | > 100 |  |  |
| Cc1nc(-c2ncccn2)sc1C(=O)N1C[C@@H]2[C@H](C1)[C@H]2Oc1cc(C(C)(C)N)cc(-c2ccc(F)c3ccccc23)n1 [Example 42, ((1R,5S,6s)-6-((4-(2-aminopropan-2-yl)-6-(4-fluoronaphthalen-1-yl)pyridin-2-yl)oxy)-3-azabicyclo[3.1.0]hexan-3-yl)(4-methyl-2-(pyrimidin-2-yl)thiazol-5-yl)methanone] | < 10 | 10 to 100 |  |  |
| Cc1nc(-c2ncccn2)sc1C(=O)N1C[C@@H]2[C@H](C1)[C@H]2Oc1cc(C(C)(C)N)cc(-c2cc3ccccc3[nH]2)n1 [Example 43, ((1R,5S,6s)-6-((4-(2-aminopropan-2-yl)-6-(1H-indol-2-yl)pyridin-2-yl)oxy)-3-azabicyclo[3.1.0]hexan-3-yl)(4-methyl-2-(pyrimidin-2-yl)thiazol-5-yl)methanone] | < 10 | > 100 |  |  |
| Cc1nc(-c2ncccn2)sc1C(=O)N1C[C@@H]2[C@H](C1)[C@H]2Oc1cc(C(C)(C)N)cc(-c2cc3ccccc3n2C)n1 [Example 44, ((1R,5S,6s)-6-((4-(2-aminopropan-2-yl)-6-(1-methyl-1H-indol-2-yl)pyridin-2-yl)oxy)-3-azabicyclo[3.1.0]hexan-3-yl)(4-methyl-2-(pyrimidin-2-yl)thiazol-5-yl)methanone] | < 10 | 10 to 100 |  |  |
| Cc1nc(-c2ncccn2)sc1C(=O)N1C[C@@H]2[C@H](C1)[C@H]2Oc1cc(C(C)(C)N)cc(C2=CCCCC2)n1 [Example 45, ((1R,5S,6s)-6-((4-(2-aminopropan-2-yl)-6-(cyclohex-1-en-1-yl)pyridin-2-yl)oxy)-3-azabicyclo[3.1.0]hexan-3-yl)(4-methyl-2-(pyrimidin-2-yl)thiazol-5-yl)methanone] | < 10 | > 100 |  |  |
| Cc1nc(-c2ncccn2)sc1C(=O)N1C[C@@H]2[C@H](C1)[C@H]2Oc1cc(C(C)(C)N)cc(C2=CCC3(CCC3)CC2)n1 [Example 48, ((1R,5S,6s)-6-((4-(2-aminopropan-2-yl)-6-(spiro[3.5]non-6-en-7-yl)pyridin-2-yl)oxy)-3-azabicyclo[3.1.0]hexan-3-yl)(4-methyl-2-(pyrimidin-2-yl)thiazol-5-yl)methanone] | < 10 | > 100 |  |  |
| CC(C)(N)c1cc(O[C@H]2[C@@H]3CN(C(=O)c4sc(-c5ncccn5)nc4C(F)F)C[C@@H]32)nc(-c2ccc(F)cc2)c1 [Example 49, ((1R,5S,6s)-6-((4-(2-aminopropan-2-yl)-6-(4-fluorophenyl)pyridin-2-yl)oxy)-3-azabicyclo[3.1.0]hexan-3-yl)(4-(difluoromethyl)-2-(pyrimidin-2-yl)thiazol-5-yl)methanone] |  |  | < 10 | 10 to 100 |
| Cn1nc(-c2cccc(F)n2)cc1C(=O)N1C[C@@H]2[C@H](C1)[C@H]2Oc1cc(C(C)(C)N)cc(-c2ccc(F)cc2)n1 [Example 50, ((1R,5S,6s)-6-((4-(2-aminopropan-2-yl)-6-(4-fluorophenyl)pyridin-2-yl)oxy)-3-azabicyclo[3.1.0]hexan-3-yl)(3-(6-fluoropyridin-2-yl)-1-methyl-1H-pyrazol-5-yl)methanone] |  |  | < 10 | 10 to 100 |
| Cc1cccc(-c2cc(C(=O)N3C[C@@H]4[C@H](C3)[C@H]4Oc3cc(C(C)(C)N)cc(-c4ccc(F)cc4)n3)n(C)n2)n1 [Example 51, ((1R,5S,6s)-6-((4-(2-aminopropan-2-yl)-6-(4-fluorophenyl)pyridin-2-yl)oxy)-3-azabicyclo[3.1.0]hexan-3-yl)(1-methyl-3-(6-methylpyridin-2-yl)-1H-pyrazol-5-yl)methanone] | < 10 | > 100 |  |  |
| Cn1nc(-c2ncccn2)cc1C(=O)N1C[C@@H]2[C@H](C1)[C@H]2Oc1cc(C(C)(C)N)cc(-c2ccc(F)cc2)n1 [Example 52, ((1R,5S,6s)-6-((4-(2-aminopropan-2-yl)-6-(4-fluorophenyl)pyridin-2-yl)oxy)-3-azabicyclo[3.1.0]hexan-3-yl)(1-methyl-3-(pyrimidin-2-yl)-1H-pyrazol-5-yl)methanone] |  |  | < 10 | > 100 |
| Cn1nc(-c2ncccn2)c(Cl)c1C(=O)N1C[C@@H]2[C@H](C1)[C@H]2Oc1cc(C(C)(C)N)cc(-c2ccc(F)cc2)n1 [Example 53, ((1R,5S,6s)-6-((4-(2-aminopropan-2-yl)-6-(4-fluorophenyl)pyridin-2-yl)oxy)-3-azabicyclo[3.1.0]hexan-3-yl)(4-chloro-1-methyl-3-(pyrimidin-2-yl)-1H-pyrazol-5-yl)methanone] |  |  | < 10 | > 100 |
| Cn1nc(-c2ncccn2)c(F)c1C(=O)N1C[C@@H]2[C@H](C1)[C@H]2Oc1cc(C(C)(C)N)cc(-c2ccc(F)cc2)n1 [Example 54, ((1R,5S,6s)-6-((4-(2-aminopropan-2-yl)-6-(4-fluorophenyl)pyridin-2-yl)oxy)-3-azabicyclo[3.1.0]hexan-3-yl)(4-fluoro-1-methyl-3-(pyrimidin-2-yl)-1H-pyrazol-5-yl)methanone] |  |  | < 10 | > 100 |
| Cn1nc(-c2ncccn2)cc1C(=O)N1C[C@@H]2[C@H](C1)[C@H]2Oc1cc(C(C)(C)N)cc(-c2ccc(F)c(F)c2)n1 [Example 55, ((1R,5S,6s)-6-((4-(2-aminopropan-2-yl)-6-(3,4-difluorophenyl)pyridin-2-yl)oxy)-3-azabicyclo[3.1.0]hexan-3-yl)(1-methyl-3-(pyrimidin-2-yl)-1H-pyrazol-5-yl)methanone] |  |  | < 10 | > 100 |
| Cn1nc(-c2ncccn2)cc1C(=O)N1C[C@@H]2[C@H](C1)[C@H]2Oc1cc(C(C)(C)N)cc(-c2ccc(F)c(Cl)c2)n1 [Example 56, ((1R,5S,6s)-6-((4-(2-aminopropan-2-yl)-6-(3-chloro-4-fluorophenyl)pyridin-2-yl)oxy)-3-azabicyclo[3.1.0]hexan-3-yl)(1-methyl-3-(pyrimidin-2-yl)-1H-pyrazol-5-yl)methanone] | < 10 | > 100 |  |  |
| Cn1nc(-c2ncccn2)cc1C(=O)N1C[C@@H]2[C@H](C1)[C@H]2Oc1cc(C(C)(C)N)cc(-c2ccc(F)cc2Cl)n1 [Example 57, ((1R,5S,6s)-6-((4-(2-aminopropan-2-yl)-6-(2-chloro-4-fluorophenyl)pyridin-2-yl)oxy)-3-azabicyclo[3.1.0]hexan-3-yl)(1-methyl-3-(pyrimidin-2-yl)-1H-pyrazol-5-yl)methanone] | < 10 | > 100 |  |  |
| Cn1nc(-c2ncccn2)cc1C(=O)N1C[C@@H]2[C@H](C1)[C@H]2Oc1cc(C(C)(C)N)cc(-c2ccc(Cl)cc2)n1 [Example 58, ((1R,5S,6s)-6-((4-(2-aminopropan-2-yl)-6-(4-chlorophenyl)pyridin-2-yl)oxy)-3-azabicyclo[3.1.0]hexan-3-yl)(1-methyl-3-(pyrimidin-2-yl)-1H-pyrazol-5-yl)methanone] | < 10 | 10 to 100 |  |  |
| Cn1nc(-c2ncccn2)cc1C(=O)N1C[C@@H]2[C@H](C1)[C@H]2Oc1cc(C(C)(C)N)cc(-c2ccc(C(F)(F)F)cc2)n1 [Example 59, ((1R,5S,6s)-6-((4-(2-aminopropan-2-yl)-6-(4-(trifluoromethyl)phenyl)pyridin-2-yl)oxy)-3-azabicyclo[3.1.0]hexan-3-yl)(1-methyl-3-(pyrimidin-2-yl)-1H-pyrazol-5-yl)methanone] | < 10 | 10 to 100 |  |  |
